This note sets out measurements from ChEMBL document CHEMBL1156025, “GDC-0449-a potent inhibitor of the hedgehog pathway” (Bioorg Med Chem Lett, 2009).

A short description of series [1]: Clearance in rat liver microsomes. It is filed as ADME, Microsome.
Series [2] is described as follows: Clearance in dog liver microsomes. It counts as ADME, Canis lupus familiaris, Microsome.
Series [3] in a line: Aqueous solubility at pH 6.5. It is filed as physicochemical.
Series [4] is described as follows: Aqueous solubility at pH 1. It is filed as physicochemical.
A short description of series [5]: Plasma concentration in human Calu6 cells xenografted in nude mouse at 75 mg/kg, po bid measured after 4 hrs post fifth dose. It counts as ADME, organism-based, Calu-6. Further details: dose 75 mg/kg, route oral. In general terms: Xenograft models place foreign cells or tissue in a host animal.
In another series the test system is Plasma. As to the kind of experiment: (§1) Fraction unbound in human Calu6 cells xenografted in nude mouse plasma at 75 mg/kg, po bid measured after 4 hrs post fifth dose. It is filed as ADME, organism-based, Calu-6. Further details: dose 75 mg/kg, route oral. The settings on record: in vivo, 4 h.
Another series concerns the target Cytochrome P450 2C9 (Homo sapiens, UniProt P11712). As to the kind of experiment: Inhibition of CYP2C9. It is filed as ADME.
The nature of series [6]: as §1. It is filed as ADME, organism-based, Calu-6. Further details: dose 75 mg/kg, route oral. The settings on record: nude, plasma.
A further series has as its system Calu-6. The series can be described thus: Inhibition of hedgehog pathway in human Calu6 cells xenografted in nude mouse assessed as decrease in Gli transcription at 75 mg/kg, po bid measured after 4 hrs post fifth dose. It counts as functional, organism-based. Further details: dose 75 mg/kg.

≈ marks a conversion by molar mass, not a printed value. Calls of active or inactive are those of the source. The rule behind the calls is not given here.

Sequence of Cytochrome P450 2C9 (P11712 whole entry): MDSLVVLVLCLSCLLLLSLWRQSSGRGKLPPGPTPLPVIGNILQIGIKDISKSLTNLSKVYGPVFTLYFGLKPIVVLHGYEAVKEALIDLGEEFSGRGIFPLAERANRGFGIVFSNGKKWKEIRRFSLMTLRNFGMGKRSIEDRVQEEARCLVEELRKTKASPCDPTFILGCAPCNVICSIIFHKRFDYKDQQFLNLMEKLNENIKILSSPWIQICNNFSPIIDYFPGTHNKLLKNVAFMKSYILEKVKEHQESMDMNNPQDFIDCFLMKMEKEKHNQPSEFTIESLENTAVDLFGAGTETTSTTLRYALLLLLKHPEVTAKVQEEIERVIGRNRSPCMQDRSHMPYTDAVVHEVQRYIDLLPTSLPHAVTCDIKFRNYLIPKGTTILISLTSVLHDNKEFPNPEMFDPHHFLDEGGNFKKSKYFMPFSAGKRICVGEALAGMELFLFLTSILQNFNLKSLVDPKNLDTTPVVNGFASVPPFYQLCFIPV

What is called CLint scaled is the rate of metabolic loss divided by the concentration. Higher therefore signals faster metabolism. The term solubility denotes how much of the substance goes into solution per volume. Read a low solubility as a poorly soluble substance. `Cc1nc(C(F)(F)F)ccc1C(=O)Nc1ccc(Cl)c(-c2cnc3ccccc3n2)c1`: the CLint scaled in [1] was 10.7 mL/min/kg; in series [2], 7.4 mL/min/kg. Also, the solubility in series [3] and in series [4] was 0.1 µg/mL (≈ 0.226 µM) throughout.

With `CS(=O)(=O)c1ccc(C(=O)Nc2ccc(Cl)c(-c3ccccn3)c2)c(Cl)c1` [VISMODEGIB], in [5], the concentration at 4 h came out at 23 µM. Moreover, the CLint scaled in series [1] turned out to be 3.7 mL/min/kg; in [2], 0.4 mL/min/kg. The compound further showed a Fu in the series with Plasma of 9%. Moreover, the solubility is 9.5 µg/mL (≈ 22.5 µM) in series [3] and above 3000 µg/mL in series [4].

As for `Cc1nc(C(F)(F)F)ccc1C(=O)Nc1ccc(Cl)c(-c2nc3ccccc3[nH]2)c1`, the CLint scaled in series [1] was found to be 3 mL/min/kg; in series [2], 124 mL/min/kg. Also, the figures for the solubility in series [3] and in [4] were 0.3 µg/mL (≈ 0.696 µM) and 300 µg/mL (≈ 696 µM), respectively.

As usually defined, the IC50 is the concentration at which inhibition is half-maximal. For the compound `Cc1nc(C(F)(F)F)ccc1C(=O)Nc1ccc(Cl)c(-c2nc3ccccc3n2C)c1`, 2500 nM corresponded to half-maximal inhibition against Cytochrome P450 2C9 (IC50).

The term fraction unbound denotes free concentration divided by total concentration. Read a low fraction unbound as extensive binding. Compound `CS(=O)(=O)c1ccc(C(=O)Nc2ccc(Cl)c(-c3ccccn3)c2)cc1` returned a concentration at 4 h in series [5] of 14 µM. The values for the CLint scaled in series [1] and in series [2] were 1.2 mL/min/kg and 1.4 mL/min/kg, respectively. The fraction unbound at 4 h in series [6] stood at 0.03. Further, the results for the solubility in [3] and in series [4] were 0.5 µg/mL (≈ 1.29 µM) and 420 µg/mL (≈ 1090 µM), respectively. In addition, in the series with Calu-6, the outcome was inactive.

Turning to `Cc1nc(C(F)(F)F)ccc1C(=O)Nc1ccc(Cl)c(-n2cc3ccccc3n2)c1`, the CLint scaled in series [1] was 99.3 mL/min/kg.

`Cc1nc(C(F)(F)F)ccc1C(=O)Nc1ccc(Cl)c(-c2ccccn2)c1` gave a concentration at 4 h in series [5] of 0.86 µM. The CLint scaled in [1] was found to be 4.5 mL/min/kg; in series [2], 1.9 mL/min/kg. Moreover, the solubility was 1.8 µg/mL (≈ 4.59 µM) in [3] and 1000 µg/mL (≈ 2550 µM) in series [4]. Further, in the series on Calu-6, the result was inactive.
